Molecular target: Human immunodeficiency virus type 1 protease (Human immunodeficiency virus 1, UniProt Q72874)
Experiment: Apparent inhibition constant against recombinant HIV-1 protease

Row | SMILES | Ki
1 | CCCC(=O)c1c[nH]c([C@H](Cc2ccccc2)C[C@H](O)[C@H](Cc2ccccc2)NC(=O)OC(C)(C)C)n1 | 0.15 µM
2 | CC(C)C(O)c1cnc([C@H](Cc2ccccc2)C[C@H](O)[C@H](Cc2ccccc2)NC(=O)OC(C)(C)C)[nH]1 (stereo not given in full) | 2.7 µM
3 | CC(C)C(=O)c1cnc([C@H](Cc2ccccc2)C[C@H](O)[C@H](Cc2ccccc2)NC(=O)OC(C)(C)C)[nH]1 | 0.083 µM
4 | CC(C)[C@@H](NC(=O)[C@@H](Cc1ccccc1)NCC(O)C(=O)[C@H](Cc1ccccc1)NC(=O)[C@H](C)NC(=O)OCc1ccccc1)C(=O)O (stereo not given in full) | 0.0007 µM
5 | CC(O)c1cnc([C@H](Cc2ccccc2)C[C@H](O)[C@H](Cc2ccccc2)NC(=O)OC(C)(C)C)[nH]1 (stereo not given in full) | 13.3 µM
6 | CCC(=O)c1cnc([C@H](Cc2ccccc2)C[C@H](O)[C@H](Cc2ccccc2)NC(=O)OC(C)(C)C)[nH]1 | 0.092 µM
7 | CC(C)(C)OC(=O)N[C@@H](Cc1ccccc1)[C@@H](O)C[C@@H](Cc1ccccc1)c1nc(C=O)c[nH]1 | 3.5 µM
8 | CC(C)(C)OC(=O)N[C@@H](Cc1ccccc1)C(=O)C(O)CN[C@@H](Cc1ccccc1)C(=O)NCC(N)=O (stereo not given in full) | 0.12 µM
9 | CC(=O)c1c[nH]c([C@H](Cc2ccccc2)C[C@H](O)[C@H](Cc2ccccc2)NC(=O)OC(C)(C)C)n1 | 0.37 µM
10 | C=CC(C)(C)C(=O)c1cnc([C@H](Cc2ccccc2)C[C@H](O)[C@H](Cc2ccccc2)NC(=O)OC(C)(C)C)[nH]1 | 0.27 µM
